Laboratory results reported in PubChem BioAssay AID464 (The Scripps Research Institute Molecular Screening Center, 2006).
Calls of active or inactive are those of the source.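 The calls were made as follows: active = Compounds that kill half the cells at a concentration of 5 micromolar or below, from the fitted or estimated CC50; inactive = CC50 above 5 micromolar.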

tested on: Jurkat E6.1 viability, ATP luminescence, 48 h; experiment: Jurkat E6.1 cell cytotoxicity, CC50 determination, dose response, cytotoxicity control, ATP luminescence, 48 h, 60K MLSMR (AID 464)

| Compound | CC50 |
| --- | --- |
| Cn1c(=O)oc2cc(S(=O)(=O)N3CCCc4ccccc43)ccc21 | 0.173 µM |
| Cc1oc(-c2ccccc2Cl)nc1CSCC(=O)N1CCCC1 | > 40 µM (inactive) |
| COCc1cc(CN2CCCC2)c(O)c2ncccc12 | > 13 µM (inactive) |
| Cc1ccc(C2NC(=O)c3ccccc3N2)s1 (configuration not stated) | 4.16 µM |
| CC(C)Cc1cc(C(=O)Nc2cc(Br)ccc2O)no1 | > 40 µM (inactive) |
| CCCCC(=O)Nc1ccc(C(=O)NCCCn2ccnc2)cc1 | > 4.4 µM (inactive) |
| Cc1cc(C)n(-c2nc3ccccc3c(=O)n2OCC(=O)OCc2ccccc2)n1 | 9.76 µM (inactive) |
